Our source for the IC50 values is patent publication US20240043860A1, “NOVEL HYDROXYPHENYLPYRUVATE DIOXYGENASE POLYPEPTIDES AND METHODS OF USE THEREOF” (Syngenta Crop Protection AG, priority 2020, published 2024).

Read-outs that look alike come from different tables or passages of the source.

For test [1], the target named is HPPD variant AVESA V201 (SEQ ID NO: 8) (Avena sativa, UniProt A0ACD5V6K6, A327R/G411A/I340E/L359M/V218I/V260A). It counts as biochemical. Particulars: AVESA V201, SEQ ID NO: 8. How it is done:
(§1) 25 ul of the overnight cultures were inoculated into fresh 96-deepwell block containing 1 ml Formedium Autoinduction Media (AIM). The AIM cultures were grown for 3h at 37° C. (900rpm) and then transferred to 20° C. overnight (900rpm) to allow protein expression. The overnight cultures were centrifuged and 500 ul of Cellytic B (Sigma Aldrich) was added to resuspend the cell pellets. The coupled HGO assay (Siehl et al, 2014) is used to generate IC50 values for the HPPD variants of interest.
(§2) E. coli BL21 (DE3) cells were transformed with a pET24a vector containing a C-terminally his-tagged Arabidopsis HGO gene, grown and induced overnight as described for the HPPD variants above. The cell pellet was resuspended in phosphate buffered saline at pH 7.4 containing 10% Glycerol, 1mm Tris[2-carboxyethyl] phosphine-HCl (TCEP) plus 30 mM Imidazole and lysed using lysozyme/benzonase. The extract was clarified by low speed centrifugation and purified in the same buffer down a 1 ml His Gravitrap column. The bound HGO was eluted in 0.25M imidazole and the fractions pooled and beaded into liquid nitrogen. All procedures apart from the centrifugation and beading steps were carried out under a nitrogen atmosphere.
(§3) The coupled HGO assay is carried out by adding 10 ul of HPPD extract to a 96-well plate and then adding 40 ul of reaction buffer (50 mM Bis Tris Propane, pH7.0, 25 mM sodium-L-ascorbate, 400μM mercaptoethanol, 50 μM Fe(II)SO4). The plates are left to incubate for 5 minutes on ice. […] 200 ul of HPP/HGO (197 μM hydroxyphenylpyruvic acid, 16 μl/ml Homogentisic Acid Oxidase in reaction buffer as described above) buffer is then added to the well and the reaction is regularly monitored (e.g. every 30 seconds-5 minutes) for absorbance at 330 nm for a given time period (e.g., for between 15-60 minutes). The data can then be used to calculate the IC50 value for each HPPD variant of interest.

The target in test [2] is HPPD variant AVESA V162 (SEQ ID NO: 122) (Avena sativa, UniProt A0ACD5V6K6, A327R/I340E/L359M/V218I). The experiment in a line: biochemical. It counts as biochemical. How it is done: as §1, §2, §3
Sequence of HPPD variant AVESA V162 (SEQ ID NO: 122) (A0ACD5V6K6 entry or part of it V218I/A327R/I340E/L359M): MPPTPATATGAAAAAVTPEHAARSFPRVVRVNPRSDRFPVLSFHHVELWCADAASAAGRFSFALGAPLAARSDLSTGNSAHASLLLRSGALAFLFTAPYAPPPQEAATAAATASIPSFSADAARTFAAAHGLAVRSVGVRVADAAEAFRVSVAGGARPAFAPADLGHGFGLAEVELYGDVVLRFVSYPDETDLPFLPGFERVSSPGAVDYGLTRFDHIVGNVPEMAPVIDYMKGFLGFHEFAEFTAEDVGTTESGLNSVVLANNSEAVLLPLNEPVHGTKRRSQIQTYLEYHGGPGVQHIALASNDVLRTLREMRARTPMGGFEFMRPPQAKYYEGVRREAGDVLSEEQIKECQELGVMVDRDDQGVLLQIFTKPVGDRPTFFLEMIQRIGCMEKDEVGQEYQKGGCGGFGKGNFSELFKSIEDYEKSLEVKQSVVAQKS
For test [3], the target named is HPPD variant AVESA V180 (SEQ ID NO: 124) (Avena sativa, UniProt A0ACD5V6K6, A327R/G411A/I340E/L359M/V218I). The experiment in a line: biochemical. It counts as biochemical. How it is done: as §1, §2, §3
Sequence of HPPD variant AVESA V180 (SEQ ID NO: 124) (A0ACD5V6K6 entry or part of it V218I/A327R/I340E/L359M/G411A): as the sequence (A0ACD5V6K6 entry or part of it V218I/A327R/I340E/L359M) above, with G411A counted along it
In test [4] the target is HPPD variant AVESA V296 (SEQ ID NO: 20) (Avena sativa, UniProt A0ACD5V6K6, A327R/G411A/I340E/L359Y/R214G/V218I). The test is described as follows: biochemical. It counts as biochemical. How it is done: as §1, §2, §3
Sequence of HPPD variant AVESA V296 (SEQ ID NO: 20) (A0ACD5V6K6 entry or part of it R214G/V218I/A327R/I340E/L359Y/G411A): as the sequence (A0ACD5V6K6 entry or part of it V218I/A327R/I340E/L359M) above, with R214G, M359Y, G411A counted along it
Test [5] addresses HPPD variant AVESA V306 (SEQ ID NO: 32) (Avena sativa, UniProt A0ACD5V6K6, A327R/I340E/L359M/P271N/R214G/V218I). The experiment in a line: biochemical. It counts as biochemical. How it is done: as §1, §2, §3
Test [6] deals with HPPD variant AVESA V313 (SEQ ID NO: 38) (Avena sativa, UniProt A0ACD5V6K6, A327R/I340E/L359Y/P271N/R214G/V218I/V260A). The test is described as follows: biochemical. It counts as biochemical. How it is done:
as §1, §2, §3

Test [7] concerns the target HPPD variant AVESA V332 (SEQ ID NO: 44) (Avena sativa, UniProt A0ACD5V6K6, A327R/I340E/K404N/L359M/P271N/R214G/V218I/V260A). The test is described as follows: biochemical. It counts as biochemical. How it is done: as §1, §2, §3
Test [8] concerns the target HPPD variant AVESA V351 (SEQ ID NO: 50) (Avena sativa, UniProt A0ACD5V6K6, A327R/G411A/I340E/L359Y/R214G/S304T/V218I). The experiment in a line: biochemical. It counts as biochemical. How it is done:
as §1, §2, §3

The target of test [9] is HPPD variant AVESA V358 (SEQ ID NO: 56) (Avena sativa, UniProt A0ACD5V6K6, A327R/I340E/L359M/P271N/R214G/S304T/V218I/V260A). The test is described as follows: biochemical. It counts as biochemical. The procedure: as §1, §2, §3
Sequence of HPPD variant AVESA V358 (SEQ ID NO: 56) (A0ACD5V6K6 entry or part of it R214G/V218I/V260A/P271N/S304T/A327R/I340E/L359M): as the sequence (A0ACD5V6K6 entry or part of it V218I/A327R/I340E/L359M) above, with R214G, V260A, P271N, S304T counted along it
Test [10] relates to HPPD variant APESV V162 (SEQ ID NO: 123). The test is described as follows: coupled HGO assay. It counts as biochemical, Apera spica-venti. How it is done: DNA sequences (SEQ ID NOs: 65-118, 128, 130, 131, and 133), synthesized for expression in E. coli, by GeneWiz (USA) to encode HPPD variants (SEQ ID NOs: 5-58, 122, 124, 125 and 127) derived from either Avena sativa (SEQ ID NOs: 122, 124), Alopecurus myosuroides (SEQ ID NO: 126) or Apera spica-venti (SEQ ID NOs: 123, 125) were transformed into E coli BL21 (DE3) (New England Biolabs) and grown in 0.5 ml Terrific broth +50 ug/ml Kanamycin media in a 96-deepwell block overnight (37° C., 900rpm). 25 ul of the overnight cultures were inoculated into fresh 96-deepwell block containing 1 ml Formedium Autoinduction Media (AIM). The AIM cultures were grown for 3h at 37° C. (900rpm) and then transferred to 20° C. overnight (900rpm) to allow protein expression. The overnight cultures were centrifuged and 500 ul of Cellytic B (Sigma Aldrich) was added to resuspend the cell pellets. The coupled HGO assay (Siehl et al, 2014) is used to generate IC50 values for the HPPD variants of interest.
as §2, §3

[11] abbreviates: AVESA V162, SEQ ID NO: 122, read-out: IC50.
Where [12] appears, read: AVESA V180, SEQ ID NO: 124, read-out: IC50.
Where [13] appears, read: AVESA V296, SEQ ID NO: 20, read-out: IC50.
[14] abbreviates: AVESA V306, SEQ ID NO: 32, read-out: IC50.
Where [15] appears, read: AVESA V313, SEQ ID NO: 38, read-out: IC50.
[16] abbreviates: AVESA V332, SEQ ID NO: 44, read-out: IC50.
The mark [17] stands for this setting: AVESA V351, SEQ ID NO: 50, read-out: IC50.
[18] abbreviates: AVESA V358, SEQ ID NO: 56, read-out: IC50.

Sequence of HPPD variant AVESA V351 (SEQ ID NO: 50) (A0ACD5V6K6 entry or part of it R214G/V218I/S304T/A327R/I340E/L359Y/G411A): as the sequence (A0ACD5V6K6 entry or part of it V218I/A327R/I340E/L359M) above, with R214G, S304T, M359Y, G411A counted along it
Sequence of HPPD variant AVESA V306 (SEQ ID NO: 32) (A0ACD5V6K6 entry or part of it R214G/V218I/P271N/A327R/I340E/L359M): as the sequence (A0ACD5V6K6 entry or part of it V218I/A327R/I340E/L359M) above, with R214G, P271N counted along it
Sequence of HPPD variant AVESA V313 (SEQ ID NO: 38) (A0ACD5V6K6 entry or part of it R214G/V218I/V260A/P271N/A327R/I340E/L359Y): as the sequence (A0ACD5V6K6 entry or part of it V218I/A327R/I340E/L359M) above, with R214G, V260A, P271N, M359Y counted along it
Sequence of HPPD variant AVESA V332 (SEQ ID NO: 44) (A0ACD5V6K6 entry or part of it R214G/V218I/V260A/P271N/A327R/I340E/L359M/K404N): as the sequence (A0ACD5V6K6 entry or part of it V218I/A327R/I340E/L359M) above, with R214G, V260A, P271N, K404N counted along it
Sequence of HPPD variant AVESA V201 (SEQ ID NO: 8) (A0ACD5V6K6 entry or part of it V218I/V260A/A327R/I340E/L359M/G411A): as the sequence (A0ACD5V6K6 entry or part of it V218I/A327R/I340E/L359M) above, with V260A, G411A counted along it

For `COc1ccc(-n2nc(C)cc(C(=O)C3C(=O)CCCC3=O)c2=O)cc1OC` [Herbicide C, dioxopyritrione], the IC50 in test [1] is 0.89 µM; in test [2] (setting [11]), 0.25 µM; in test [3] (setting [12]), 0.61 µM; in test [4] (setting [13]), 1.3 µM; in test [5] (setting [14]) it was above 50 µM; in [6] (setting [15]), around 0.2 µM. Moreover, the concentration for half-maximal inhibition (IC50) in [7] (setting [16]) was above 50 µM; in [8] (setting [17]), 14.3 µM; in test [9] (setting [18]), below 0.19 µM; in [10], 0.26 µM.
With `Cn1nnnc1NC(=O)c1ccc(C(F)(F)F)nc1-n1cncn1` [Herbicide D, N-(1-methyltetrazol-5-yl)-2-(1,2,4-triazol-1-yl)-6-(trifluoromethyl)pyridine-3-carboxamide], the half-inhibitory concentration (IC50) in test [2] is 6.73 µM; in test [3], above 500 µM; in [4], above 500 µM; in [5] it was 129 µM; in test [6], 205 µM; in [7], 134 µM. Moreover, the figures for the IC50 in test [8], in [9] and in test [10] were above 500 µM, 177 µM and 11.3 µM, respectively.
Regarding bicyclopyrone, the IC50 is above 500 µM in [1]; 0.38 µM in test [2] (setting [11]); 55.6 µM in test [3] (setting [12]); above 500 µM in [4] (setting [13]); 10.2 µM in test [5] (setting [14]); below 0.39 µM in test [6] (setting [15]). Moreover, the concentration for half-maximal inhibition (IC50) is 102 µM in [7] (setting [16]), above 500 µM in [8] (setting [17]), below 0.39 µM in test [9] (setting [18]) and below 0.39 µM in test [10].

A word on the IC50: it is the concentration needed to halve the response being measured.
